Data: the supplement of paper PMC10733146

Assays:
Test in all cases: viability relative to DMSO control (fraction); higher = less drug effect (more viable cells)
Settings in all cases: 48 h
[1] = compound: CC[C@]1(O)C[C@@H]2CN(CCc3c([nH]c4ccccc34)[C@@](C(=O)OC)(c3cc4c(cc3OC)N(C)[C@H]3[C@@](O)(C(N)=O)[C@H](O)[C@]5(CC)C=CCN6CC[C@]43[C@@H]65)C2)C1 [Vindesine]
Outline: (§1)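 Compounds were pre-plated at five concentrations, one well each, in 384-well plates, and primary mononuclear tumour cells were plated on them at 4 × 10^4 cells per well. The cells, fresh or cryopreserved, had been Ficoll-isolated from blood or bone marrow or taken from processed lymph node. After 48 h at 37 °C and 5% CO2 in RPMI-1640 with penicillin/streptomycin, L-glutamine and human serum, viability was read as CellTiter-Glo luminescence relative to the median of 16 inner DMSO wells.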

[2] = compound: c1cn2cc(-c3ccc4cn[nH]c4c3)nc(Nc3ccc(N4CCOCC4)cc3)c2n1 [Entospletinib]
Outline: as §1

[3] = compound: CCS(=O)(=O)N1CCC([C@@H](C)n2c(C)c(C(=O)NCc3c(OC)cc(C)[nH]c3=O)c3ccccc32)CC1 [CPI-169]
Outline: as §1

[4] = compound: CC1(C)CCC(CN2CCN(c3ccc(C(=O)NS(=O)(=O)c4ccc(NCC5CCOCC5)c([N+](=O)[O-])c4)c(Oc4cnc5[nH]ccc5c4)c3)CC2)=C(c2ccc(Cl)cc2)C1 [Venetoclax]
Outline: as §1

[5] = compound: O=C(NO)c1cccc(C(=O)NCCc2ccccc2)c1
Outline: as §1

[6] = compound: O=C(Nc1ccc2[nH]nc(-c3ccncc3)c2c1)[C@@H]1CCN(CC(=O)N2CCN(c3ccc(-c4ncccn4)cc3)CC2)C1
Outline: as §1

[7] = compound: C[C@H]1C[C@@H](n2c(Nc3ccc(OC(F)(F)F)cc3)nc3cc(CCC(=O)O)ccc32)CC(C)(C)C1
Outline: as §1

[8] = compound: CCNC(=O)C[C@@H]1N=C(c2ccc(Cl)cc2)c2cc(OC)ccc2-n2c(C)nnc21 [I-BET-762]
Outline: as §1

[9] = compound: O=C1CCC(N2C(=O)c3ccccc3C2=O)C(=O)N1 [Thalidomide]
Outline: as §1

[10] = compound: CC[C@H](CO)Nc1nc(NCc2ccccc2)c2ncn(C(C)C)c2n1 [Roscovitine]
Outline: as §1

[11] = compound: CO[C@H]1C[C@@H]2CC[C@@H](C)[C@@](O)(O2)C(=O)C(=O)N2CCCC[C@H]2C(=O)O[C@H]([C@H](C)C[C@@H]2CC[C@@H](OCCO)[C@H](OC)C2)CC(=O)[C@H](C)/C=C(\C)[C@@H](O)[C@@H](OC)C(=O)[C@H](C)C[C@H](C)/C=C/C=C/C=C/1C [Everolimus]
Outline: as §1

[12] = compound: COc1cc(C(=O)O)ccc1NC(=O)[C@@H]1N[C@@H](CC(C)(C)C)[C@](C#N)(c2ccc(Cl)cc2F)[C@H]1c1cccc(Cl)c1F [Idasanutlin (RS7388)]
Outline: as §1

[13] = compound: Cn1c(CCCC(=O)O)nc2cc(N(CCCl)CCCl)ccc21 [Bendamustine]
Outline: as §1

## primary AML patient cells (S081)
[1]; 0.016 µM
  viability: 0.879
[1]; 0.08 µM
  viability: 0.841
[1]; 0.4 µM
  viability: 0.844
[1]; 2 µM
  viability: 0.788
[1]; 10 µM
  viability: 0.836
[2]; 0.024 µM
  viability: 0.995
[2]; 0.12 µM
  viability: 1.04
[2]; 0.6 µM
  viability: 0.984
[2]; 3 µM
  viability: 0.998
[2]; 15 µM
  viability: 1.04
[3]; 0.024 µM
  viability: 0.914
[3]; 0.12 µM
  viability: 0.926
[3]; 0.6 µM
  viability: 0.925
[3]; 3 µM
  viability: 0.948
[3]; 15 µM
  viability: 1.02
[4]; 0.00064 µM
  viability: 1.05
[4]; 0.0032 µM
  viability: 1.05
[4]; 0.016 µM
  viability: 1.07
[4]; 0.08 µM
  viability: 1.09
[4]; 0.4 µM
  viability: 1.1
[5]; 0.024 µM
  viability: 0.89
[5]; 0.12 µM
  viability: 0.955
[5]; 0.6 µM
  viability: 0.931
[5]; 3 µM
  viability: 0.965
[5]; 15 µM
  viability: 1
[6]; 0.008 µM
  viability: 1.04
[6]; 0.04 µM
  viability: 1.02
[6]; 0.2 µM
  viability: 0.892
[6]; 1 µM
  viability: 0.66
[6]; 5 µM
  viability: 0.392
[7]; 0.024 µM
  viability: 0.865
[7]; 0.12 µM
  viability: 1.03
[7]; 0.6 µM
  viability: 0.933
[7]; 3 µM
  viability: 0.829
[7]; 15 µM
  viability: 0.895
[8]; 0.008 µM
  viability: 0.962
[8]; 0.04 µM
  viability: 0.912
[8]; 0.2 µM
  viability: 0.798
[8]; 1 µM
  viability: 0.619
[8]; 5 µM
  viability: 0.335
[9]; 0.032 µM
  viability: 0.936
[9]; 0.16 µM
  viability: 0.942
[9]; 0.8 µM
  viability: 0.918
[9]; 4 µM
  viability: 0.962
[9]; 20 µM
  viability: 0.985
[10]; 0.032 µM
  viability: 0.903
[10]; 0.16 µM
  viability: 0.868
[10]; 0.8 µM
  viability: 0.949
[10]; 4 µM
  viability: 0.857
[10]; 20 µM
  viability: 0.625
[11]; 0.0032 µM
  viability: 0.962
[11]; 0.016 µM
  viability: 0.976
[11]; 0.08 µM
  viability: 0.957
[11]; 0.4 µM
  viability: 1
[11]; 2 µM
  viability: 1
[12]; 0.032 µM
  viability: 0.884
[12]; 0.16 µM
  viability: 1.08
[12]; 0.8 µM
  viability: 1.14
[12]; 4 µM
  viability: 1
[12]; 20 µM
  viability: 1.06
[13]; 0.032 µM
  viability: 0.979
[13]; 0.16 µM
  viability: 1.05
[13]; 0.8 µM
  viability: 1.04
[13]; 4 µM
  viability: 1.12
[13]; 20 µM
  viability: 1.09

## primary MCL patient cells (S041)
[1]; 0.016 µM
  viability: 0.764
[1]; 0.08 µM
  viability: 0.622
[1]; 0.4 µM
  viability: 0.595
[1]; 2 µM
  viability: 0.529
[1]; 10 µM
  viability: 0.351
[2]; 0.024 µM
  viability: 0.999
[2]; 0.12 µM
  viability: 1.02
[2]; 0.6 µM
  viability: 0.964
[2]; 3 µM
  viability: 0.983
[2]; 15 µM
  viability: 1.12
[3]; 0.024 µM
  viability: 1.01
[3]; 0.12 µM
  viability: 1.02
[3]; 0.6 µM
  viability: 0.988
[3]; 3 µM
  viability: 1.05
[3]; 15 µM
  viability: 1.08
[4]; 0.00064 µM
  viability: 1.03
[4]; 0.0032 µM
  viability: 0.866
[4]; 0.016 µM
  viability: 0.384
[4]; 0.08 µM
  viability: 0.0604
[4]; 0.4 µM
  viability: 0.0328
[5]; 0.024 µM
  viability: 1.01
[5]; 0.12 µM
  viability: 1.14
[5]; 0.6 µM
  viability: 1.03
[5]; 3 µM
  viability: 1.04
[5]; 15 µM
  viability: 1.07
[6]; 0.008 µM
  viability: 0.979
[6]; 0.04 µM
  viability: 0.985
[6]; 0.2 µM
  viability: 0.959
[6]; 1 µM
  viability: 0.927
[6]; 5 µM
  viability: 0.862
[7]; 0.024 µM
  viability: 0.909
[7]; 0.12 µM
  viability: 0.992
[7]; 0.6 µM
  viability: 0.97
[7]; 3 µM
  viability: 0.903
[7]; 15 µM
  viability: 0.983
[8]; 0.008 µM
  viability: 0.967
[8]; 0.04 µM
  viability: 0.999
[8]; 0.2 µM
  viability: 0.954
[8]; 1 µM
  viability: 0.819
[8]; 5 µM
  viability: 0.777
[9]; 0.032 µM
  viability: 0.959
[9]; 0.16 µM
  viability: 0.925
[9]; 0.8 µM
  viability: 0.959
[9]; 4 µM
  viability: 0.956
[9]; 20 µM
  viability: 1
[10]; 0.032 µM
  viability: 0.99
[10]; 0.16 µM
  viability: 0.965
[10]; 0.8 µM
  viability: 1.07
[10]; 4 µM
  viability: 0.995
[10]; 20 µM
  viability: 0.593
[11]; 0.0032 µM
  viability: 0.912
[11]; 0.016 µM
  viability: 0.868
[11]; 0.08 µM
  viability: 0.873
[11]; 0.4 µM
  viability: 0.86
[11]; 2 µM
  viability: 0.882
[12]; 0.032 µM
  viability: 0.794
[12]; 0.16 µM
  viability: 0.811
[12]; 0.8 µM
  viability: 0.607
[12]; 4 µM
  viability: 0.278
[12]; 20 µM
  viability: 0.147
[13]; 0.032 µM
  viability: 0.996
[13]; 0.16 µM
  viability: 1.05
[13]; 0.8 µM
  viability: 0.988
[13]; 4 µM
  viability: 0.958
[13]; 20 µM
  viability: 0.788
